Source: ChEMBL document CHEMBL1201862, “PubChem BioAssay data set” (2004)
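Assay format: 96-well plates, 48-hour exposure. At the GI50, growth is halved.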 Active and inactive are the calls of the source. Rule as the data show it: active = GI50 up to about 1.1 µM and inactive = higher.

What was measured:
Experiment in all cases: NCI-60 cell line screen, 48 h
HCC 2998 = tested on: HCC 2998
T47D = tested on: T47D
IGROV-1 = tested on: IGROV-1
SK-MEL-5 = tested on: SK-MEL-5
COLO 205 = tested on: COLO 205
NCI/ADR-RES = tested on: NCI/ADR-RES
SN12C = tested on: SN12C
786-0 = tested on: 786-0
DU-145 = tested on: DU-145
A549 = tested on: A549
MDA-MB-435 = tested on: MDA-MB-435
SR = tested on: SR
HCT-15 = tested on: HCT-15
LOX IMVI = tested on: LOX IMVI
MDA-MB-231 = tested on: MDA-MB-231
CAKI-1 = tested on: CAKI-1
BT-549 = tested on: BT-549
A498 = tested on: A498
SF-295 = tested on: SF-295

Structure (SMILES) | GI50 (HCC 2998) | GI50 (T47D) | GI50 (IGROV-1) | GI50 (SK-MEL-5) | GI50 (COLO 205) | GI50 (NCI/ADR-RES) | GI50 (SN12C) | GI50 (786-0) | GI50 (DU-145) | GI50 (A549) | GI50 (MDA-MB-435) | GI50 (SR) | GI50 (HCT-15) [µM] | GI50 (LOX IMVI) | GI50 (MDA-MB-231) | GI50 (CAKI-1) | GI50 (BT-549) | GI50 (A498) | GI50 (SF-295)
Cc1cc(C)c(-n2[nH]c(=O)n(C)c2=O)c(C)c1 | > 100 µM (inactive) | > 100 µM (inactive) | > 100 µM (inactive) | > 100 µM (inactive) | > 100 µM (inactive) | > 100 µM (inactive) | > 100 µM (inactive) | > 100 µM (inactive) | > 100 µM (inactive) | > 100 µM (inactive) | > 100 µM (inactive) | > 100 µM (inactive) | > 100 | > 100 µM (inactive) | > 100 µM (inactive) | > 100 µM (inactive) | > 100 µM (inactive) | > 100 µM (inactive) | –
O=C(O)/C=N\N=c1[nH]c2ccccc2[nH]1 | > 100 µM (inactive) | > 100 µM (inactive) | > 100 µM (inactive) | > 100 µM (inactive) | > 100 µM (inactive) | > 100 µM (inactive) | > 100 µM (inactive) | > 100 µM (inactive) | > 100 µM (inactive) | > 100 µM (inactive) | > 100 µM (inactive) | > 100 µM (inactive) | > 100 | > 100 µM (inactive) | > 100 µM (inactive) | > 100 µM (inactive) | > 100 µM (inactive) | > 100 µM (inactive) | > 100 µM (inactive)
O=C(CN1CCN(Cc2ccccc2)CC1)c1ccc2[nH]c(=O)oc2c1 | > 100 µM (inactive) | > 100 µM (inactive) | 99.3 µM (inactive) | > 100 µM (inactive) | > 100 µM (inactive) | > 100 µM (inactive) | > 100 µM (inactive) | > 100 µM (inactive) | > 100 µM (inactive) | > 100 µM (inactive) | > 30.5 µM (inactive) | > 67.1 µM (inactive) | > 100 | > 100 µM (inactive) | > 100 µM (inactive) | > 100 µM (inactive) | > 100 µM (inactive) | > 100 µM (inactive) | > 100 µM (inactive)
N#CC1=C(N)N(/N=C/c2ccco2)C(c2ccco2)C1(C#N)C#N (stereo not drawn) | 19.4 µM (inactive) | 12.4 µM (inactive) | 14.6 µM (inactive) | 15.3 µM (inactive) | 14.2 µM (inactive) | 25.1 µM (inactive) | 26.9 µM (inactive) | 17.2 µM (inactive) | 17.7 µM (inactive) | 19.6 µM (inactive) | 21.3 µM (inactive) | 16 µM (inactive) | 15.3 | 14.2 µM (inactive) | 19.5 µM (inactive) | 15.2 µM (inactive) | 17.6 µM (inactive) | 16 µM (inactive) | 28.4 µM (inactive)
C[N+](C)([O-])C12CC3CC(CC(C3)C1)C2 | 29.4 µM (inactive) | 26.9 µM (inactive) | 25.3 µM (inactive) | 27.2 µM (inactive) | 27 µM (inactive) | 31.6 µM (inactive) | 33.7 µM (inactive) | 25.5 µM (inactive) | 37.2 µM (inactive) | 25.8 µM (inactive) | 28.4 µM (inactive) | 41.3 µM (inactive) | 30.6 | 27.2 µM (inactive) | > 100 µM (inactive) | > 100 µM (inactive) | 34 µM (inactive) | 22 µM (inactive) | 30 µM (inactive)
CCCCCc1cc2cc3c(c(O)c2c(=O)[nH]1)C1(CCC3)C(=O)c2c(O)c3c(c(O)c2C1=O)C(=O)C(OC)=CC3=O (stereo not drawn) | 2.05 µM (inactive) | 0.0959 µM (active) | 1.03 µM (active) | 0.515 µM (active) | 0.276 µM (active) | 4.56 µM (inactive) | 1.01 µM (active) | 0.746 µM (active) | 0.822 µM (active) | 1 µM (active) | 0.908 µM (active) | 0.573 µM (active) | 0.42 | 0.661 µM (active) | 0.792 µM (active) | 0.502 µM (active) | 0.703 µM (active) | 2.18 µM (inactive) | 1.91 µM (inactive)
O=[N+]([O-])c1ccc(S(=O)(=O)N=Ic2ccccc2)cc1 | > 100 µM (inactive) | > 100 µM (inactive) | > 100 µM (inactive) | > 100 µM (inactive) | > 100 µM (inactive) | > 100 µM (inactive) | > 100 µM (inactive) | > 100 µM (inactive) | > 100 µM (inactive) | > 100 µM (inactive) | > 100 µM (inactive) | > 100 µM (inactive) | > 100 | > 100 µM (inactive) | > 100 µM (inactive) | > 100 µM (inactive) | > 100 µM (inactive) | > 100 µM (inactive) | > 100 µM (inactive)
O=C1Nc2ccccc2/C1=C\c1c(Cl)n(-c2ccccc2)c2ccccc12 | 3.15 µM (inactive) | 3.41 µM (inactive) | 2.75 µM (inactive) | 2.66 µM (inactive) | 1.61 µM (inactive) | 2.38 µM (inactive) | 3.61 µM (inactive) | 2.67 µM (inactive) | 2.79 µM (inactive) | 3.52 µM (inactive) | 0.759 µM (active) | 2.96 µM (inactive) | 2.49 | 3.56 µM (inactive) | 3.03 µM (inactive) | 2.49 µM (inactive) | 5.93 µM (inactive) | 6.7 µM (inactive) | 3.18 µM (inactive)
NCC(O)CNC(=O)c1ccc(-c2ccc(-c3ccc(C(=O)NCC(O)CN)cc3)o2)cc1 (stereo not drawn) | 25.1 µM (inactive) | 34.6 µM (inactive) | 30.8 µM (inactive) | 33.3 µM (inactive) | 81.8 µM (inactive) | > 100 µM (inactive) | 25.1 µM (inactive) | 23.3 µM (inactive) | 22 µM (inactive) | 37.4 µM (inactive) | > 100 µM (inactive) | 67.5 µM (inactive) | 57.8 | 45 µM (inactive) | 24.5 µM (inactive) | 81.7 µM (inactive) | 32.7 µM (inactive) | 25 µM (inactive) | 23.5 µM (inactive)
COc1c(O)c(OC)c2oc(-c3ccc(O)c(O)c3)c(OC)c(=O)c2c1O | 29.3 µM (inactive) | 3.28 µM (inactive) | 10.4 µM (inactive) | 11.8 µM (inactive) | 27.1 µM (inactive) | 55.1 µM (inactive) | 56.9 µM (inactive) | 15 µM (inactive) | 24.2 µM (inactive) | 35.6 µM (inactive) | 3.13 µM (inactive) | 28.7 µM (inactive) | 11.5 | 23.9 µM (inactive) | 23.1 µM (inactive) | 26.9 µM (inactive) | 6.81 µM (inactive) | 31.6 µM (inactive) | 39.3 µM (inactive)
OC(c1ccc(-c2ccccc2)cc1)C(F)(F)c1nc2ccccc2o1 (stereo not drawn) | > 100 µM (inactive) | 31.8 µM (inactive) | 34 µM (inactive) | 65.3 µM (inactive) | > 74 µM (inactive) | > 79.8 µM (inactive) | 50.5 µM (inactive) | 25.9 µM (inactive) | 26.5 µM (inactive) | 40.4 µM (inactive) | > 86.9 µM (inactive) | 25.9 µM (inactive) | > 100 | > 95.3 µM (inactive) | 17.5 µM (inactive) | 25.1 µM (inactive) | > 96.4 µM (inactive) | 9.12 µM (inactive) | 96.4 µM (inactive)
CN(/N=C/c1ccc(Cl)cc1)C1=NCCCCN1 | 44.6 µM (inactive) | > 100 µM (inactive) | > 100 µM (inactive) | 53.2 µM (inactive) | 35.1 µM (inactive) | > 100 µM (inactive) | 81.5 µM (inactive) | 99.8 µM (inactive) | > 100 µM (inactive) | 93.8 µM (inactive) | 72.1 µM (inactive) | > 100 µM (inactive) | > 100 | 22.1 µM (inactive) | 35 µM (inactive) | > 100 µM (inactive) | > 100 µM (inactive) | 56.9 µM (inactive) | > 100 µM (inactive)
C=C1CC(Cn2ccc(=O)[nH]c2=O)(c2ccc(-c3ccccc3)cc2)OC1=O (stereo not drawn) | 2.07 µM (inactive) | 1.57 µM (inactive) | 1.04 µM (active) | 1.16 µM (inactive) | 0.441 µM (active) | 0.805 µM (active) | 4.6 µM (inactive) | 0.619 µM (active) | 1.05 µM (active) | 11.1 µM (inactive) | 1.69 µM (inactive) | 0.995 µM (active) | 1.65 | 0.493 µM (active) | 1.98 µM (inactive) | 1.16 µM (inactive) | 1.86 µM (inactive) | 2.86 µM (inactive) | 12.5 µM (inactive)
CC(C)=CCC/C(C)=C/CC/C(C)=C/CC/C(C=O)=C/CC/C(C)=C\CC/C(C)=C/CC/C(C)=C/CC/C(C)=C/CC1=CC(=O)C=CC1=O | > 100 µM (inactive) | 10.5 µM (inactive) | 31.8 µM (inactive) | 56 µM (inactive) | 73.8 µM (inactive) | > 100 µM (inactive) | > 100 µM (inactive) | 67 µM (inactive) | > 100 µM (inactive) | > 100 µM (inactive) | 56.4 µM (inactive) | > 100 µM (inactive) | > 100 | 80.2 µM (inactive) | > 100 µM (inactive) | 33 µM (inactive) | > 100 µM (inactive) | > 100 µM (inactive) | 91.4 µM (inactive)
CC(C)C[C@H](NC(=O)[C@H](Cc1cccc2ccccc12)NS(=O)(=O)c1cccc2cccnc12)B(O)O | 0.00219 µM (active) | < 0.01 µM (active) | < 0.0208 µM (active) | < 0.01 µM (active) | < 0.0243 µM (active) | 2.32 µM (inactive) | < 0.0122 µM (active) | 0.0222 µM (active) | 0.0445 µM (active) | 0.0435 µM (active) | < 0.01 µM (active) | < 0.0167 µM (active) | 0.227 | < 0.0118 µM (active) | < 0.0149 µM (active) | 0.0923 µM (active) | < 0.0306 µM (active) | < 0.0147 µM (active) | –
